# Values quoted from earlier work in publication PMC4629110 (Acta Pharmaceutica Sinica. B, 2014).
# Test system: BuChE
# Conditions: read-out: IC50 BuChE reported in the literature
smiles,measurement,value
"CC(C)NP(=O)(NC(C)C)OP(=O)(NC(C)C)NC(C)C [ISO-OMPA, tetraisopropyl pyrophosphoramide]",IC50,980 nM
